One block for each molecule: values may come before it.
Experiments:
PDK1 [1] = test: PDK1 assay: activation of GST-PKBα by purified PDK1 with phospholipid vesicles; format: biochemical, rabbit; details: for fold-activation of GST-PKBα (PDK1 activity) / activation of PDK1 (in words): lipid 10 μM in vesicles of 100 μM PtdCho, 100 μM PtdSer, 30 min at 30° C.; for order of level of activation of the 3-phosphoinositide-dependent kinase (most effective first): rabbit skeletal muscle PDK1, FIG. 6; for activation and phosphorylation of GST-PKBα by PDK1 in the presence of Triton X-100: 0.5% (by vol) in the assay
Protocol: (§1) Assay of PDK1. The assay was carried out in two stages; in the first, GST-PKBα was incubated with PDK1 in the presence of MgATP and phospholipid vesicles to permit activation of GST-PKBα.
(§2) After 10 min at 30° C., the reactions were terminated by spotting the reaction mixture on to p81 phosphocellulose paper. The papers were washed in phosphoric acid and analysed as described previously. […] The basal GST-PKBα activity is the activity measured in the absence of PDK1.

PDK1 [2] = test: Phosphorylation of GST-PKBα by PDK1 with [γ32P]ATP; format: biochemical, rabbit; details: lipid 10 μM in PtdCho/PtdSer vesicles
Protocol: Solutions were stored at 4° C. at concentrations 10-fold higher than those required in the assay and used within 2-4 days.
(§3) Phosphorylation of GST-PKB ? by PDK1. The incubations were identical to the Stage 1 described above except that [γ^32P] ATP (200-400 cpm/pmol) was used instead of unlabelled ATP. The reactions were terminated by making the solution 1% (by mass) in SDS. […] The Coomassie blue-staining bands corresponding to GST-PKBα were excised and the ^32P-radioactivity associated with each band was quantified.

GST-PKBα = biological target: T1, GST-PKBα (Homo sapiens, UniProt P31749); test: Activity of PDK1 preparations towards GST-PKBα; format: biochemical; details: for phosphorylation of GST-PKBα: PtdIns(3,4,5)P3 lipids, high enzyme concentration; for specific activity towards GST-PKBα: in the presence of PtdIns(3,4,5)P3; for fold increase in GST-PKBα activity: in the presence of PtdIns(3,4,5)P3 vesicles
T1 construct: generate a full length cDNA encoding the PKBα gene; made in house; host or cells: human embryonic kidney 293 cells (pEBG2T), serum starved
Protocol: as §1, §2, §3

T1 sequence (P31749 whole entry): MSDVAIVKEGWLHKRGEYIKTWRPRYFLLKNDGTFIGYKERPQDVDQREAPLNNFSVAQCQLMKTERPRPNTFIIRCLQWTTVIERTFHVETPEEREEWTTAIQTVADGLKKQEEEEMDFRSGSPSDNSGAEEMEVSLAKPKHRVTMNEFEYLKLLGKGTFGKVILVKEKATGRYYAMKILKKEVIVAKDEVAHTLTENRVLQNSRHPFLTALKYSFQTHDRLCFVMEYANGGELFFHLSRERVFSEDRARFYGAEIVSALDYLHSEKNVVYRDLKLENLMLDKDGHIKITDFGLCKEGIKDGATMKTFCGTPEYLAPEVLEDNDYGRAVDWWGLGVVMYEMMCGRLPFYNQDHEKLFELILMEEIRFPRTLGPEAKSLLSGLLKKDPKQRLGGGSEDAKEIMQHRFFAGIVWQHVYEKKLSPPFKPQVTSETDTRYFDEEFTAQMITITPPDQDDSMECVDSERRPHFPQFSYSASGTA

Molecule: CCCCC/C=C\C/C=C\C/C=C\C/C=C\CCCC(=O)OC(COC(=O)CCCCCCCCCCCCCCCCC)COP(=O)(O)OC1C(O)C(OP(=O)(O)O)C(OP(=O)(O)O)C(OP(=O)(O)O)C1O (single isomer, unassigned) [Lipid 4, L-enantiomer of sn-2-arachidonyl-3-stearoyl PtdIns(3,4,5)P3]
activation of PDK1 (in words) (PDK1 [1]): no significant activation
fold-activation of GST-PKBα (PDK1 activity) (PDK1 [1]; 3-stearoyl L-PtdIns(3,4,5)P3): 2.3 fold
activation of PDK1 (in words) (PDK1 [1]; listed as L-enantiomer of sn-2-arachidonyl-3-stearoyl PtdIns(3,4,5)P3): almost ineffective

Molecule: O=P(O)(O)O[C@H]1[C@H](O)[C@@H](OP(=O)(O)O)[C@H](OP(=O)(O)O)[C@@H](OP(=O)(O)O)[C@H]1O [IP4, inositol 1,3,4,5-tetrakisphosphate]
phosphorylation of GST-PKBα by PDK1 (in words) (PDK1 [2]): did not activate PDK1 or induce the phosphorylation
activation of PDK1 (in words) (PDK1 [1]): no significant activation
activation of PDK1 (in words) (PDK1 [1]; listed as Ins(1,3,4,5)P4): did not activate PDK1
activation of PDK1 (in words) (PDK1 [1]; listed as inositol 1,3,4,5-tetrakisphosphate): did not activate PDK1 at all

Molecule: CCCCCCCCCCCCCCCC(=O)OC[C@H](COP(=O)(O)OC1C(O)C(OP(=O)(O)O)C(O)C(OP(=O)(O)O)C1O)OC(=O)CCCCCCCCCCCCCCC (some centres unmarked) [Lipid 8, sn-1,2 di-palmitoyl PtdIns(3,5)P2]
phosphorylation of GST-PKBα by PDK1 (in words) (PDK1 [2]): did not activate PDK1 or induce the phosphorylation
activation of PDK1 (in words) (PDK1 [1]): no significant activation
activation of PDK1 (in words) (PDK1 [1]; listed as PtdIns(3,5)P2): did not activate PDK1 at all
activation of PDK1 (in words) (PDK1 [1]; listed as lipid 8): did not activate PDK1

Molecule: PtdIns 4P [Lipid 10]
phosphorylation of GST-PKBα by PDK1 (in words) (PDK1 [2]): did not activate PDK1 or induce the phosphorylation
activation of PDK1 (in words) (PDK1 [1]): no significant activation
activation of PDK1 (in words) (PDK1 [1]; listed as PtdIns(4)P): did not activate PDK1 at all
activation of PDK1 (in words) (PDK1 [1]; listed as lipid 10): did not activate PDK1

Molecule: Triton X-100
activation and phosphorylation of GST-PKBα by PDK1 in the presence of Triton X-100 (PDK1 [1]; listed as Triton X100): completely inhibits
activation and phosphorylation of GST-PKBα by PDK1 in the presence of Triton X-100 (PDK1 [1]; listed as Triton-X100): prevented

Molecule: protein tyrosine phosphatase 1B: protein tyrosine phosphatase 1B
PDK1 activity after treatment with phosphatase (PDK1 [1]; high concentrations of phosphatase): no effect on activity

B2: GST-D223A-PDK1: catalytically inactive GST-PDK1 mutant in which Asp223 was changed to Ala (protein, UniProt O15530 1-556, looked up, variant D223A)
3-phosphoinositide-dependent …: MARTTSQLYDAVPIQSSVVLCSCPSPSMVRTQTESSTPPGIPGGSRQGPAMDGTAAEPRPGAGSLQHAQPPPQPRKKRPEDFKFGKILGEGSFSTVVLARELATSREYAIKILEKRHIIKENKVPYVTRERDVMSRLDHPFFVKLYFTFQDDEKLYFGLSYAKNGELLKYIRKIGSFDETCTRFYTAEIVSALEYLHGKGIIHRDLKPENILLNEDMHIQITAFGTAKVLSPESKQARANSFVGTAQYVSPELLTEKSACKSSDLWALGCIIYQLVAGLPPFRAGNEYLIFQKIIKLEYDFPEKFFPKARDLVEKLLVLDATKRLGCEEMEGYGPLKAHPFFESVTWENLHQQTPPKLTAYLPAMSEDDEDCYGNYDNLLSQFGCMQVSSSSSSHSLSASDTGLPQRSGSNIEQYIHDLDSNSFELDLQFSEDEKRLLLEKQAGGNPWHQFVENNLILKMGPVDKRKGLFARRRQLLLTEGPHLYYVDPVNKVLKGEIPWSQELRPEAKNFKTFFVHTPNRTYYLMDPSGNAHKWCRKIQEVWRQRYQSHPDAAVQ
modifications: GST fusion tag
phosphorylation and activation of GST-PKBα (in words) (GST-PKBα; PtdCho/PtdSer lipid vesicles containing PtdIns(3,4,5)P3): did not phosphorylate or active GST-PKBα

B3: GST-DSTPK61: residues 1-752 of Drosophila DSTPK61 expressed in E. coli as GST fusion (protein)
chain: MKCKSWSNKINNYVVRKIKSIKINGTQQQLQLPGSGASGIAAAAVITVASDCGENCSSNGTEHQQHFNIATTTATSATEATMPAMAKEKASATVSLGESNFRDINLKDLAVVVEAASRLHHQQNVCGCGAVSSTENNNNSRYGSSKYLTNGHTSPLAAAVASNSSSVATTPHCRMLHNCSLQQYQNDIRQQTEILDMLRQQHQQGYQSQQQQQQPQQQQEQQQQQEQSQQQQQLQNPAPRRSPNDFIFGRYIGEGSYSIVYLAVDIHSRREYAIKVCEKRLILRERKQDYIKREREVMHQMTNVPGFVNLSCTFQDQRSLYFVMTYARKGDMLPYINRVGSFDVACTRHYAAELLLACEHMHRRNVVHRDLKPENILLDEDMHTLIADFGSAKVMTAHERALATEHCSEQRRSNSDEDDEDSDRLENEDEDFYDRDSEELDDGDDEQQQEEMDSPRHRQRRYNRHRKASFVGTAQYVSPEVLQNGPITPAADLWALGCIVYQMIAGLPPFRGSNDYVIFKEILDCAVDFPQGFDKDAEDLVRKLLRVDPRDRLGAQDEFGYYESIRAHPFFAGIDWQTLRQQTPPPIYPYLPGVSQDEDFRSSYTVPGDLEPGLDERQISRLLSAELGVGSSVAMPVKRSTAKNSFDLNDAEKLQRLEQQKTDKWHVFADGEVILKKGFVNKRKGLFARKRMLLLTTGPRLIYIDPVQMIKKGEIPWSPDLRAEYKNFKIFFVHTPNRTYYLDDPEGYAIHW
modifications: left off: a dimerising Fc or GST
notes: residues 1-752 of Drosophila DSTPK61 expressed in E. coli as GST fusion
phosphorylation of GST-PKBα (GST-PKBα): 0.75 mol phosphate per mol protein
specific activity towards GST-PKBα (GST-PKBα): 280 U/mg
fold increase in GST-PKBα activity (GST-PKBα): 35 fold

Further lines, with some results ahead:

order of level of activation of the 3-phosphoinositide-dependent kinase (most effective first) (PDK1 [1]): 1
Molecule: CCCCC/C=C\C/C=C\CCCCCCCC(=O)OCC(COP(=O)(O)OC1C(O)C(OP(=O)(O)O)C(OP(=O)(O)O)C(OP(=O)(O)O)C1O)OC(=O)CCCCCCC/C=C\C/C=C\CCCCC (racemic) [Lipid 5, Racemic sn-1,2-dilinoleoyl PtdIns(3,4,5)P3]
fold-activation of GST-PKBα (PDK1 activity) (PDK1 [1]): 36 fold

order of level of activation of the 3-phosphoinositide-dependent kinase (most effective first) (PDK1 [1]): 2
Molecule: CCCCC/C=C\C/C=C\C/C=C\C/C=C\CCCC(=O)OC(COC(=O)CCCCCCCCCCCCCCCCC)COP(=O)(O)OC1C(O)C(OP(=O)(O)O)C(OP(=O)(O)O)C(OP(=O)(O)O)C1O (single isomer, unassigned) [Lipid 3, D-enantiomer of sn-2-arachidonyl-3-stearoyl PtdIns(3,4,5)P3]
fold-activation of GST-PKBα (PDK1 activity) (PDK1 [1]; 3-stearoyl D-PtdIns(3,4,5)P3): 16 fold
activation of PDK1 (in words) (PDK1 [1]; listed as D-enantiomer of sn-2-arachidonyl-3-stearoyl PtdIns(3,4,5)P3): potently activated PDK1

order of level of activation of the 3-phosphoinositide-dependent kinase (most effective first) (PDK1 [1]): 4
Molecule: CCCCCCCCCCCCCCCC(=O)OCC(COP(=O)(O)OC1C(O)C(OP(=O)(O)O)C(OP(=O)(O)O)C(OP(=O)(O)O)C1O)OC(=O)CCCCCCCCCCCCCCC (centres unmarked) [Lipid 6, sn-1,2 di-palmitoyl PtdIns(3,4,5)P3]
fold less effective in activating PDK1 than the sn-1-stearoyl-2-arachidonyl and sn-2-arachidonyl-3-stearoyl derivatives (PDK1 [1]): ~3 fold
fold-activation of GST-PKBα (PDK1 activity) (PDK1 [1]): about 6 fold
fold-activation of GST-PKBα (PDK1 activity) (PDK1 [1]; listed as sn-1,2-dipalmitoyl D-PtdIns(3,4,5)P3): 5.5 fold

phosphorylation of GST-PKBα (GST-PKBα): 0.75 mol phosphate per mol protein
fold increase in GST-PKBα activity (GST-PKBα): 35 fold
Molecule: GST-PDK1: residues 52-556 of human PDK1 expressed in 293 cells as fusion with glutathione S-transferase
specific activity towards GST-PKBα (GST-PKBα): 78 000 U/mg

fold reduction of the rate of activation of GST-PKBα compared to full length wild-type GST-PDK1 (GST-PKBα; PtdIns(3,4,5)P3 present): about 30 fold
B1: GST-ΔPH-PDK1: PDK1 mutant lacking the putative C-terminal PH domain, residues 1-450, GST fusion (protein, UniProt O15530 1-450, looked up, fragment)
chain: MARTTSQLYDAVPIQSSVVLCSCPSPSMVRTQTESSTPPGIPGGSRQGPAMDGTAAEPRPGAGSLQHAQPPPQPRKKRPEDFKFGKILGEGSFSTVVLARELATSREYAIKILEKRHIIKENKVPYVTRERDVMSRLDHPFFVKLYFTFQDDEKLYFGLSYAKNGELLKYIRKIGSFDETCTRFYTAEIVSALEYLHGKGIIHRDLKPENILLNEDMHIQITDFGTAKVLSPESKQARANSFVGTAQYVSPELLTEKSACKSSDLWALGCIIYQLVAGLPPFRAGNEYLIFQKIIKLEYDFPEKFFPKARDLVEKLLVLDATKRLGCEEMEGYGPLKAHPFFESVTWENLHQQTPPKLTAYLPAMSEDDEDCYGNYDNLLSQFGCMQVSSSSSSHSLSASDTGLPQRSGSNIEQYIHDLDSNSFELDLQFSEDEKRLLLEKQAGGNPWHQ
modifications: GST fusion tag
notes: PDK1 mutant lacking the putative C-terminal PH domain, residues 1-450, GST fusion
